# Counter-ions that a name gives are not always drawn. Like-named read-outs stand apart in the source and are kept apart here.
# Experiments:
# monoclonal antibody 19A7 = format: binding, mice
# Description: Cross-reactivity was tested by spiking various potential cross-reactants into human urine containing a preservative.
# [1] = Dilution analysis of sample containing LSD metabolite, Abuscreen RIA (Roche); format: binding; conditions: LSD equivalents
# Description: (§1) In the following experiment, the results of the CEDIA® are compared with those of the DPC assay, and with those obtained using the Abuscreen® radioimmunoassay by Roche. While the amount of metabolite in the sample is not known in absolute terms, the behavior is tested by dilution analysis. Results are given in terms of LSD equivalents.
# [2] = Dilution analysis of sample containing LSD metabolite, CEDIA; format: binding; conditions: for LSD ng/ml CEDIA: LSD equivalents
# Description: as §1
# [3] = Dilution analysis of sample containing LSD metabolite, DPC RIA; format: binding; conditions: LSD equivalents
# Description: as §1
# [4] = Concentration Added 10,000 ng/ml, 100 × observed dose / concentration added
# [5] = Concentration Added 10,000 ng/ml, in human urine
# [6] = Concentration Added 500,000 ng/ml, 100 × observed dose / concentration added
# [7] = Concentration Added 500,000 ng/ml, in human urine
# [8] = Concentration Added 100,000 ng/ml, 100 × observed dose / concentration added
# [9] = Concentration Added 100,000 ng/ml, in human urine
# [10] = sample containing the metabolite, essentially free of LSD parent by GC/MS, undiluted
# [11] = Concentration Added 50,000 ng/ml, 100 × observed dose / concentration added
# [12] = Concentration Added 50,000 ng/ml, in human urine
smiles,measurement,setting,value
CCN(CC)C(=O)[C@@H]1C=C2c3cccc4c3C(O)(C[C@H]2N(C)C1)C(=O)N4 (stereo partly shown) [2oxo-3hydroxy LSD],% Cross-Reactivity,"monoclonal antibody 19A7; Concentration Added 30 ng/ml, 100 × observed dose / concentration added",1.82%
same,Concentration Observed,"monoclonal antibody 19A7; Concentration Added 30 ng/ml, in human urine",0.55 ng/mL
CCCCCc1cc(O)c2c(c1)OC(C)(C)[C@@H]1CCC(C(=O)O)=C[C@@H]21 [11-nor-Δ^9-THC-COOH],% Cross-Reactivity,monoclonal antibody 19A7; [4],<0.0001%
same,Concentration Observed,monoclonal antibody 19A7; [5],0.0 ng/mL
CC(=O)Oc1ccccc1C(=O)O [Acetylsalicylic Acid],% Cross-Reactivity,monoclonal antibody 19A7; [6],<0.00001%
same,Concentration Observed,monoclonal antibody 19A7; [7],0.0 ng/mL
CC(C)C[C@H]1C(=O)N2CCC[C@H]2[C@]2(O)O[C@](NC(=O)[C@@H]3C=C4c5cccc6[nH]cc(c56)C[C@H]4N(C)C3)(C(C)C)C(=O)N12 [Alpha Ergotryptine],% Cross-Reactivity,monoclonal antibody 19A7; [6],0.00000%
same,Concentration Observed,monoclonal antibody 19A7; [7],0.25 ng/mL
CC1(C)S[C@@H]2[C@H](NC(=O)[C@H](N)c3ccc(O)cc3)C(=O)N2[C@H]1C(=O)O [Amoxicillin],% Cross-Reactivity,monoclonal antibody 19A7,<0.00001%
same,Concentration Observed,monoclonal antibody 19A7,0.0 ng/mL
CC(N)Cc1ccccc1 (stereo not shown) [Amphetamine],% Cross-Reactivity,monoclonal antibody 19A7; [6],<0.00001%
same,Concentration Observed,monoclonal antibody 19A7; [7],0.0 ng/mL
CN1[C@H]2CC[C@@H]1[C@@H](C(=O)O)[C@@H](OC(=O)c1ccccc1)C2 [Benzoylecgonine],% Cross-Reactivity,monoclonal antibody 19A7; [6],<0.00001%
same,Concentration Observed,monoclonal antibody 19A7; [7],0.0 ng/mL
C[C@H](CS)C(=O)N1CCC[C@H]1C(=O)O [Captopril],% Cross-Reactivity,monoclonal antibody 19A7; [6],<0.00001%
same,Concentration Observed,monoclonal antibody 19A7; [7],0.0 ng/mL
CN/C(=N/CCSCc1nc[nH]c1C)NC#N [Cimetidine],% Cross-Reactivity,monoclonal antibody 19A7,<0.00001%
same,Concentration Observed,monoclonal antibody 19A7,0.0 ng/mL
COc1ccc2c3c1O[C@H]1[C@@H](O)C=C[C@H]4[C@@H](C2)N(C)CC[C@@]341 [Codeine],% Cross-Reactivity,monoclonal antibody 19A7; [6],<0.00001%
same,Concentration Observed,monoclonal antibody 19A7; [7],0.0 ng/mL
CN1C(=O)CN=C(c2ccccc2)c2cc(Cl)ccc21 [Diazepam],% Cross-Reactivity,monoclonal antibody 19A7,<0.00001%
same,Concentration Observed,monoclonal antibody 19A7,0.0 ng/mL
C[C@H]1O[C@@H](O[C@H]2[C@@H](O)C[C@H](O[C@H]3[C@@H](O)C[C@H](O[C@H]4CC[C@@]5(C)[C@H](CC[C@@H]6[C@@H]5C[C@@H](O)[C@]5(C)[C@@H](C7=CC(=O)OC7)CC[C@]65O)C4)O[C@@H]3C)O[C@@H]2C)C[C@H](O)[C@@H]1O [Digoxin],% Cross-Reactivity,monoclonal antibody 19A7; [8],<0.00001%
same,Concentration Observed,monoclonal antibody 19A7; [9],0.0 ng/mL
CN1C[C@H](C(=O)N[C@]2(C)O[C@@]3(O)[C@@H]4CCCN4C(=O)[C@H](Cc4ccccc4)N3C2=O)C[C@@H]2c3cccc4[nH]cc(c34)C[C@H]21 [Dihydroergotaimine],% Cross-Reactivity,"monoclonal antibody 19A7; Concentration Added 125,000 ng/ml, 100 × observed dose / concentration added",0.00005%
same,Concentration Observed,"monoclonal antibody 19A7; Concentration Added 125,000 ng/ml, in human urine",≦0.01 ng/mL
COC(=O)[C@@H]1[C@H]2CC[C@@H](C[C@@H]1O)N2C [Ecogonine Methyl Ester],% Cross-Reactivity,monoclonal antibody 19A7; [8],0.00000%
same,Concentration Observed,monoclonal antibody 19A7; [9],≦0.01 ng/mL
CN1[C@H]2CC[C@@H]1[C@@H](C(=O)O)[C@@H](O)C2 [Ecogonine],% Cross-Reactivity,monoclonal antibody 19A7; [8],0.00000%
same,Concentration Observed,monoclonal antibody 19A7; [9],≦0.01 ng/mL
CCOC(=O)[C@H](CCc1ccccc1)N[C@@H](C)C(=O)N1CCC[C@H]1C(=O)O [Enalapril],% Cross-Reactivity,monoclonal antibody 19A7; [6],<0.00001%
same,Concentration Observed,monoclonal antibody 19A7; [7],0.0 ng/mL
C[C@@H](CO)NC(=O)[C@@H]1C=C2c3cccc4[nH]cc(c34)C[C@H]2N(C)C1 [Ergonovine],% Cross-Reactivity,monoclonal antibody 19A7; [4],0.007%
same,Concentration Observed,monoclonal antibody 19A7; [5],0.58 ng/mL
CN1C[C@H](C(=O)N[C@]2(C)O[C@@]3(O)[C@@H]4CCCN4C(=O)[C@H](Cc4ccccc4)N3C2=O)C=C2c3cccc4[nH]cc(c34)C[C@H]21 [Ergotamine],% Cross-Reactivity,monoclonal antibody 19A7; [8],0.00000%
same,Concentration Observed,monoclonal antibody 19A7; [9],≦0.01 ng/mL
CNCCC(Oc1ccc(C(F)(F)F)cc1)c1ccccc1 (stereo not shown) [Fluoxetine],% Cross-Reactivity,"monoclonal antibody 19A7; Concentration Added 400000 ng/mL, 100 × observed dose / concentration added",0.00012%
same,Concentration Observed,"monoclonal antibody 19A7; Concentration Added 400000 ng/mL, in human urine",0.48 ng/mL
CC(C)Cc1ccc(C(C)C(=O)O)cc1 (stereo not shown) [Ibuprofen],% Cross-Reactivity,monoclonal antibody 19A7; [6],<0.00001%
same,Concentration Observed,monoclonal antibody 19A7; [7],0.0 ng/mL
CCN(CC)C(=O)[C@H]1C=C2c3cccc4[nH]cc(c34)C[C@H]2N(C)C1 [Iso LSD],% Cross-Reactivity,"monoclonal antibody 19A7; Concentration Added 2,500 ng/ml, 100 × observed dose / concentration added",0.04%
same,Concentration Observed,"monoclonal antibody 19A7; Concentration Added 2,500 ng/ml, in human urine",0.93 ng/mL
CCN(CC)C(=O)[C@@H]1C=C2c3cccc4c3C(O)(C[C@H]2N(C)C1)C(=O)N4 (stereo partly shown) [LSD Metabolite],LSD ng/ml Abuscreen RIA,[1]; metabolite sample diluted 1:3,0.23 ng/mL
same,LSD ng/ml Abuscreen RIA,[1]; [10],0.62 ng/mL
same,recognition of the metabolite by reagents of the invention relative to the Abuscreen assay,[2]; CEDIA versus Abuscreen RIA,about 2.5 fold
same,recognition of the metabolite by reagents of the invention relative to the DPC assay,[2]; CEDIA versus DPC RIA,about 10 fold
same,LSD ng/ml CEDIA,[2]; metabolite sample diluted 1:3,0.50 ng/mL
same,LSD ng/ml CEDIA,[2]; [10],1.32 ng/mL
same,LSD ng/ml DPC RIA,[3]; metabolite sample diluted 1:3,0.03 ng/mL
same,LSD ng/ml DPC RIA,[3]; [10],0.14 ng/mL
"N[C@@H](Cc1cc(I)c(Oc2cc(I)c(O)c(I)c2)c(I)c1)C(=O)O [Levothyroxine (T4), Levothyroxine]",% Cross-Reactivity,monoclonal antibody 19A7; [11],<0.0001%
same,Concentration Observed,monoclonal antibody 19A7; [12],0.0 ng/mL
CN1C[C@H](C(=O)O)C=C2c3cccc4[nH]cc(c34)C[C@H]21 [Lysergic Acid],% Cross-Reactivity,monoclonal antibody 19A7,0.00000%
same,Concentration Observed,monoclonal antibody 19A7,≦0.01 ng/mL
CN1C[C@H](CO)C=C2c3cccc4[nH]cc(c34)C[C@H]21 [Lysergol],% Cross-Reactivity,"monoclonal antibody 19A7; Concentration Added 5,000 ng/ml, 100 × observed dose / concentration added",0.00034%
same,Concentration Observed,"monoclonal antibody 19A7; Concentration Added 5,000 ng/ml, in human urine",0.01 ng/mL
CN[C@@H](C)Cc1ccccc1 [Methamphetamine],% Cross-Reactivity,"monoclonal antibody 19A7; Concentration Added 200000 ng/mL, 100 × observed dose / concentration added",0.00019%
same,Concentration Observed,"monoclonal antibody 19A7; Concentration Added 200000 ng/mL, in human urine",0.45 ng/mL
CC[C@@H](CO)NC(=O)[C@@H]1C=C2c3cccc4c3c(cn4C)C[C@H]2N(C)C1 [Methysergide Maleate],% Cross-Reactivity,monoclonal antibody 19A7; [11],0.00147%
same,Concentration Observed,monoclonal antibody 19A7; [12],0.74 ng/mL
CN1CC[C@]23c4c5ccc(O)c4O[C@H]2[C@@H](O)C=C[C@H]3[C@H]1C5 [Morphine],% Cross-Reactivity,monoclonal antibody 19A7,<0.00001%
same,Concentration Observed,monoclonal antibody 19A7,0.0 ng/mL
c1ccc(C2(N3CCCCC3)CCCCC2)cc1 [Phencyclidine],% Cross-Reactivity,monoclonal antibody 19A7; [6],0.00002%
same,Concentration Observed,monoclonal antibody 19A7; [7],0.11 ng/mL
CN(C)CCc1c[nH]c2cccc(O)c12 [Psilocyn],% Cross-Reactivity,monoclonal antibody 19A7; [4],0.00000%
same,Concentration Observed,monoclonal antibody 19A7; [5],≦0.01 ng/mL
C=CCC1(C(C)CCC)C(=O)NC(=O)NC1=O (stereo not shown) [Secobarbital],% Cross-Reactivity,monoclonal antibody 19A7; [6],<0.00001%
same,Concentration Observed,monoclonal antibody 19A7; [7],0.0 ng/mL
NCCc1c[nH]c2ccc(O)cc12 [Seretonine],% Cross-Reactivity,"monoclonal antibody 19A7; Concentration Added 1,000,000 ng/ml, 100 × observed dose / concentration added",0.00000%
same,Concentration Observed,"monoclonal antibody 19A7; Concentration Added 1,000,000 ng/ml, in human urine",≦0.01 ng/mL
Cc1ccc(C(=O)c2ccc(CC(=O)O)n2C)cc1 [Tolmetin],% Cross-Reactivity,monoclonal antibody 19A7; [6],<0.00001%
same,Concentration Observed,monoclonal antibody 19A7; [7],0.0 ng/mL
N[C@@H](Cc1c[nH]c2ccccc12)C(=O)O [Tryptophan],% Cross-Reactivity,monoclonal antibody 19A7; [8],0.00000%
same,Concentration Observed,monoclonal antibody 19A7; [9],≦0.01 ng/mL
"CCCN(C)C(=O)[C@@H]1C=C2c3cccc4[nH]cc(c34)C[C@H]2N(C)C1 [d-LAMPA, Lysergic acid methyl-propyl amide]",% Cross-Reactivity,"monoclonal antibody 19A7; Concentration Added 0.5 ng/ml, 100 × observed dose / concentration added",58.7%
same,Concentration Observed,"monoclonal antibody 19A7; Concentration Added 0.5 ng/ml, in human urine",0.29 ng/mL

# Reference: patent US20020192703A1, “Immunoassay reagents and methods for determination of LSD and LSD metabolites” (priority 1995, published 2002)
